Data set [1] has as its system trypsin. In words: Radial diffusion assay after trypsin pre-incubation. Type of data set: in vitro ADME. The following applies: pre-incubation 4 h 37 °C, plates 18–24 h 37 °C, Fig. 6. How it is done: (§1) The enzymatic stability of Polybia-MPI and its analogues was evaluated by a modification of the sensitive radial diffusion assay. The bacteria were cultured until the optical density at 600 nm (OD600) of an aliquot reached 0.5. One milliliter of the bacteria suspension was added to 100 ml of previously autoclaved, warm Mueller–Hinton agar (MHA)/Sabouraud dextrose agar. The medium were poured into layer of a 5 mm deep. Wells were performed with a sterile plastic bore of a 3-mm-diameter gel punch. Following the addition of 20 µl pre-incubated mixture of peptides and different concentrations of trypsin or chymotrypsin for 4 h into wells. The plates were incubated at 37 °C for 18 to 24 h. An equal volume of 20 µl mixture had no trypsin or chymotrypsin was used as the control. The size of the clear zones surrounding each well as indicators of the enzymatic stability of Polybia-MPI and its analogues.
(§2) Fig. 6 The viability of bacteria/fungi after incubation with peptides in the presence/absence of enzyme. Each peptide was pre-incubated with different concentrations of chymotrypsin (a) or trypsin (b) at 37 °C for 4 h. Then the samples were heat inactivated and poured into wells of plates. The plates were incubated at 37 °C for 18–24 h. Controls were without trypsin or chymotrypsin

The test system of data set [2] is chymotrypsin. In words: Radial diffusion assay after chymotrypsin pre-incubation. In kind it is in vitro ADME. To be noted: pre-incubation 4 h 37 °C, plates 18–24 h 37 °C, Fig. 6. On the procedure: as §1, §2
Data set [3] relates to trypsin. In words: Bactericidal activity after trypsin treatment, colony plates (Fig. 4). To be noted: peptide with trypsin 4 h 37 °C, enzyme heat inactivated at 60 °C, E. coli co-incubated 3 h, plated 24 h.
Procedure: To test the stability of polybia-MPI and D-MPI, first 1 mg/l of the peptides were incubated with trypsin and chymotrypsin for 4 h for degradation. After the enzyme was heat inactivated at 60 °C for 15 min, E. coli was added and co-incubated for 3 h. Then, the treated bacteria were coated to plate and incubated at 37 °C for 24 h.
Peptides were incubated with the same volume of PBS (Left) or trypsin (Right) at 37 °C for 4 h. The enzyme was heat inactivated at 60 °C for 20 min, and E. coli suspension was added and co-incubated for 3 h. Then, the mixtures were plated onto MH broth ager and incubated for 18–24 h. Pictures of each plate were photographed
Data set [4] deals with all tested bacterial and fungal strains. In words: MIC, broth microdilution, summary over the panel. Type of data set: cell-based. To be noted: summary of Table 1, "almost in the range". How it is done: The minimal inhibitory concentration (MIC) of the peptides was measured in triplicate by the standard broth microdilution method (Peterson et al. [1980]; Wang et al. [2012]). In brief, bacteria/fungi were cultured overnight to mid-logarithmic-phase in Mueller–Hinton broth (MHB)/Sabouraud dextrose broth. The cultures were diluted to a final concentration of 2 × 10^4 cfu/ml in fresh Mueller–Hinton broth (MHB)/Sabouraud dextrose broth. Each well of 96-well propylene microtitre plates was filled with 100 µl cell suspension and 100 μl peptide solution of twofold diluted serially. And the final concentrations of peptide mixtures ranged from 1 to 256 µM. Controls were done without peptides. After 18 h of incubation at 37 °C (bacteria)/35 °C (fungi), the minimal inhibitory concentration (MIC) of the peptides was evaluated by visible turbidity in each well.

Where a SMILES comes first, the peptide text is derived from it. Where no end group is shown, it is not given here. [ ]: non-standard residue; d: D form.

These results are taken from publication PMC5128008, “Antimicrobial activity and stability of the D-amino acid substituted derivatives of antimicrobial peptide polybia-MPI” (AMB Express, 2016).

In the case of IDWKKLLDAAKQIL-NH2 [Polybia-MPI], the “inhibition zone diameters after incubation with trypsin” value in data set [1] (0.02–2 mg/ml trypsin) is reported as “decreased even disappeared”. Also, the “inhibition zone diameters after incubation with chymotrypsin” value in data set [2] (0.02–2 mg/ml chymotrypsin) is reported as “decreased even disappeared”. Further, the “E. coli colonies on plate after treatment with trypsin-incubated peptide” value in data set [3] is “many colonies”.

With `CC[C@@H](C)[C@@H](N)C(=O)N[C@H](CC(=O)O)C(=O)N[C@H](Cc1c[nH]c2ccccc12)C(=O)N[C@H](CCCCN)C(=O)N[C@H](CCCCN)C(=O)N[C@H](CC(C)C)C(=O)N[C@H](CC(C)C)C(=O)N[C@H](CC(=O)O)C(=O)N[C@H](C)C(=O)N[C@H](C)C(=O)N[C@H](CCCCN)C(=O)N[C@H](CCC(N)=O)C(=O)N[C@@H](C(=O)N[C@H](CC(C)C)C(N)=O)[C@H](C)CC` [D-MPI] (H-[dI][dD][dW][dK][dK][dL][dL][dD][dA][dA][dK][dQ][dI][dL]-NH2), in data set [4], the “MIC values, range over all tested bacterial and fungal strains” value fell in the range of 8 to 64 µM. The “inhibition zone diameters after incubation with trypsin” value in data set [1] (2 mg/ml trypsin) is reported as “almost the same as control”. In addition, in data set [2] (2 mg/ml chymotrypsin), the “inhibition zone diameters after incubation with chymotrypsin” value is on record as “almost the same as control”. Besides, in data set [3], the “E. coli colonies on plate after treatment with trypsin-incubated peptide” value is listed as “no colony”.
